Assays:
Set-up in all cases: scale not given: the % may be the effect or the level left
[1] = biological target: Macrophage colony-stimulating factor 1 receptor (Homo sapiens) (UniProt P07333); experiment: Inhibition of human FMS assessed as enzyme activity at 1 uM using poly[Glu:Tyr] (4:1) as substrate preincubated for 20 mins followed by [gamma-33P]-ATP addition and measured after 120 mins by radiometric Hot-SpotSM Kinase assay relative to control
[2] = biological target: Ribosomal protein S6 kinase beta-1 (Homo sapiens) (UniProt P23443); experiment: Inhibition of human p70S6K assessed as enzyme activity at 1 uM using KKRNRTLTK as substrate preincubated for 20 mins followed by [gamma-33P]-ATP addition and measured after 120 mins by radiometric Hot-SpotSM Kinase assay relative to control
[3] = biological target: T1, Myosin-IIIb (Homo sapiens) (UniProt Q8WXR4); experiment: Inhibition of human MYO3b assessed as enzyme activity at 1 uM using myelin basic protein as substrate preincubated for 20 mins followed by [gamma-33P]-ATP addition and measured after 120 mins by radiometric Hot-SpotSM Kinase assay relative to control
T1 sequence (whole entry): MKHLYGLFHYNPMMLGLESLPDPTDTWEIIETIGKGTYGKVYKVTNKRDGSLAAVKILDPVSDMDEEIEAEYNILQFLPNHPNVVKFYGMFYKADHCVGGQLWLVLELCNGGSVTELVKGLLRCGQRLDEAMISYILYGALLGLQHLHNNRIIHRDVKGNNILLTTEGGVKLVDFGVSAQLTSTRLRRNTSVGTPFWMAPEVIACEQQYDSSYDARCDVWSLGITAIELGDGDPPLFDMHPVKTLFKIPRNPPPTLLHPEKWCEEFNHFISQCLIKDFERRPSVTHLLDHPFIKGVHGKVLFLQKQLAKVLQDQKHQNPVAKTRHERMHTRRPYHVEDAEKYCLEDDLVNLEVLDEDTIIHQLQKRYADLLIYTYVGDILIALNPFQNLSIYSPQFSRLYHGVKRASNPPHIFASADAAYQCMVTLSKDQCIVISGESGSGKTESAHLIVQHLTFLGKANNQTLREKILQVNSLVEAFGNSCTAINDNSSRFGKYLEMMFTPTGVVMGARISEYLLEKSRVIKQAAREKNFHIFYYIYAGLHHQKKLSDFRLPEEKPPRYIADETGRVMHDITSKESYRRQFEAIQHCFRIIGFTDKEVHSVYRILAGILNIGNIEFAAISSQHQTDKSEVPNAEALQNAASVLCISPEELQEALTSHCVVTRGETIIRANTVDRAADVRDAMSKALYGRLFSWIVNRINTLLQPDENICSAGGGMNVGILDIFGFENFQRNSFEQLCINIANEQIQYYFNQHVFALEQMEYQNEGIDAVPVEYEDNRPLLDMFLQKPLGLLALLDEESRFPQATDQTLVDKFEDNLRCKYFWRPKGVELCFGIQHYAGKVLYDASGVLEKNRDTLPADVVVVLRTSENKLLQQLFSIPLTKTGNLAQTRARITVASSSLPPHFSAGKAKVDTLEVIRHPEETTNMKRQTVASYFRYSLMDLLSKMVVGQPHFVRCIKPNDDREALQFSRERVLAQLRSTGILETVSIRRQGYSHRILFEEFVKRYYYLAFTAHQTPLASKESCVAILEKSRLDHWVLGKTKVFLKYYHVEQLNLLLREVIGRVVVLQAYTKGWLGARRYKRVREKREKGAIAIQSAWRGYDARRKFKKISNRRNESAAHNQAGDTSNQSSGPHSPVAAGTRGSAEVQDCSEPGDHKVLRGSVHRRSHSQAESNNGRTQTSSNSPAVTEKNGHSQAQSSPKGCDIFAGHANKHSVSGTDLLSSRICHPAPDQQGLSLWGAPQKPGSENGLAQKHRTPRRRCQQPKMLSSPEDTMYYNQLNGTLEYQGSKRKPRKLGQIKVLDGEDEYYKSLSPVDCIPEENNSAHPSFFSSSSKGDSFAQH

[4] = biological target: T2, Serine/threonine-protein kinase Sgk2 (Homo sapiens) (UniProt Q9HBY8); experiment: Inhibition of human SGK2 assessed as enzyme activity at 1 uM using KGSGSGRPRTSSFAEG as substrate preincubated for 20 mins followed by [gamma-33P]-ATP addition and measured after 120 mins by radiometric Hot-SpotSM Kinase assay relative to control
T2 sequence (whole entry): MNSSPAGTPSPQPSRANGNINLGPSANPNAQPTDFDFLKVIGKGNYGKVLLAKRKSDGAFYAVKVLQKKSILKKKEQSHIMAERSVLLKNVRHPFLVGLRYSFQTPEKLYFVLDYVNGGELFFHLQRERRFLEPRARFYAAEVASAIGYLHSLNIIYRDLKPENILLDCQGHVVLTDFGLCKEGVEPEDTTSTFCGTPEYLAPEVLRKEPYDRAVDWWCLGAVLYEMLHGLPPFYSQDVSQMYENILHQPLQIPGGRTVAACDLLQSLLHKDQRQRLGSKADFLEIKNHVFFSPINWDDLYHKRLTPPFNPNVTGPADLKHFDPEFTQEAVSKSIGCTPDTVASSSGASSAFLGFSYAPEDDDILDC

[5] = biological target: Serine/threonine-protein kinase MRCK gamma (Homo sapiens) (UniProt Q6DT37); experiment: Inhibition of human DMPK2 assessed as enzyme activity at 1 uM using KKRPQRRYSNVF as substrate preincubated for 20 mins followed by [gamma-33P]-ATP addition and measured after 120 mins by radiometric Hot-SpotSM Kinase assay relative to control
Serine/threonine-protein kinase MRCK gamma (Homo sapiens), sequence (Q6DT37 whole entry): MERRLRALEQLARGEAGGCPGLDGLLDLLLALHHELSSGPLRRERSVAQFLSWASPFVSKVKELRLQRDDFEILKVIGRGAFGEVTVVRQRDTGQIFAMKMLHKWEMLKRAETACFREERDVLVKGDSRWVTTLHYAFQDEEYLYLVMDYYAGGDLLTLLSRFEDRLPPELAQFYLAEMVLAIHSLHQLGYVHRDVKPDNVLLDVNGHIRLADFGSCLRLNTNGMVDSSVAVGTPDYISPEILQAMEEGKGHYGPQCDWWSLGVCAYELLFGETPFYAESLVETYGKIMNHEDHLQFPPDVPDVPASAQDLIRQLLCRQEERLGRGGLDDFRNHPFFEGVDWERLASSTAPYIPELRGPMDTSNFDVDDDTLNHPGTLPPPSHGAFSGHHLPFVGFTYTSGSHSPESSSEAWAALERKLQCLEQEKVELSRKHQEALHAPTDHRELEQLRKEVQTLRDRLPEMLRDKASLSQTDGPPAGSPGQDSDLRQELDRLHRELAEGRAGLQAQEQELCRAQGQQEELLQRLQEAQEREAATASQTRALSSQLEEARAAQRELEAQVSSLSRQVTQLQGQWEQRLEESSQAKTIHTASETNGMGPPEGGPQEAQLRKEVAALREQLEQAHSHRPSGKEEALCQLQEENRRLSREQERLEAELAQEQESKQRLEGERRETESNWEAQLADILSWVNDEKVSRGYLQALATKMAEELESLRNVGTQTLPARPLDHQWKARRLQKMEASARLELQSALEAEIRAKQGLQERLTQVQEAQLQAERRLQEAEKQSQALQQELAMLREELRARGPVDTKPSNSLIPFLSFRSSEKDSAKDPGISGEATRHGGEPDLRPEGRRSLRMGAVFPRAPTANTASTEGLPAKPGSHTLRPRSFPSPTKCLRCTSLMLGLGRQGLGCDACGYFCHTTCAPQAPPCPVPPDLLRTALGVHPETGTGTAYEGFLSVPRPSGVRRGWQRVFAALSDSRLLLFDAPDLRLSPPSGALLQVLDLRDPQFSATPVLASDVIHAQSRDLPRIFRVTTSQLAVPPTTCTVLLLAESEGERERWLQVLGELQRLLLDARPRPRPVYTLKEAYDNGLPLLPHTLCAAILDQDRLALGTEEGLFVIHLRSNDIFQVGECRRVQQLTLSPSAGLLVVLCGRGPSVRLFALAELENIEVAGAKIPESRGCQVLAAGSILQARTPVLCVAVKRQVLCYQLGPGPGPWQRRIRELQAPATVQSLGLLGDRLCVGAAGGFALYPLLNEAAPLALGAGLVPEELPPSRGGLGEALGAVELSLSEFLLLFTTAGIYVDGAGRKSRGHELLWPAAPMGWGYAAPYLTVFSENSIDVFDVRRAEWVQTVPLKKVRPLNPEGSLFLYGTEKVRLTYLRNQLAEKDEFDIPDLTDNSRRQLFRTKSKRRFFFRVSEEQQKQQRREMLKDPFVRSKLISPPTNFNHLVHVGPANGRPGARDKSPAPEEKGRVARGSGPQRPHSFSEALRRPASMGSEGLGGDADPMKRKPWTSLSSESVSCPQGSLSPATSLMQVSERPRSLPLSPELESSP

Ribosomal protein S6 kinase beta-1 (Homo sapiens), sequence (P23443 whole entry, looked up): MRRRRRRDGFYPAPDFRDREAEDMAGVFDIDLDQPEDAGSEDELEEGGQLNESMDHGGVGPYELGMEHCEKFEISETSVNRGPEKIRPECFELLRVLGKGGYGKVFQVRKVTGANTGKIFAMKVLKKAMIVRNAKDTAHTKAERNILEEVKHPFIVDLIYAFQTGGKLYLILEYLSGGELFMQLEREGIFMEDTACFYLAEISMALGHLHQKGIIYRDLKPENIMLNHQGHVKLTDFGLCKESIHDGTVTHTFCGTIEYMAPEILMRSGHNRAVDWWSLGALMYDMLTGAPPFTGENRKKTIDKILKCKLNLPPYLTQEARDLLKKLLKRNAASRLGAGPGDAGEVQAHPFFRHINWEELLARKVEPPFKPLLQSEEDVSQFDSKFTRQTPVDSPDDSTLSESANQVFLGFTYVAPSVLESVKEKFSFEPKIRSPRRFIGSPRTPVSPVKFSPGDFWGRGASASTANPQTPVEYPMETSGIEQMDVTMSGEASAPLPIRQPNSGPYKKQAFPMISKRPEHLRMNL
Macrophage colony-stimulating factor 1 receptor (Homo sapiens), sequence (P07333 whole entry): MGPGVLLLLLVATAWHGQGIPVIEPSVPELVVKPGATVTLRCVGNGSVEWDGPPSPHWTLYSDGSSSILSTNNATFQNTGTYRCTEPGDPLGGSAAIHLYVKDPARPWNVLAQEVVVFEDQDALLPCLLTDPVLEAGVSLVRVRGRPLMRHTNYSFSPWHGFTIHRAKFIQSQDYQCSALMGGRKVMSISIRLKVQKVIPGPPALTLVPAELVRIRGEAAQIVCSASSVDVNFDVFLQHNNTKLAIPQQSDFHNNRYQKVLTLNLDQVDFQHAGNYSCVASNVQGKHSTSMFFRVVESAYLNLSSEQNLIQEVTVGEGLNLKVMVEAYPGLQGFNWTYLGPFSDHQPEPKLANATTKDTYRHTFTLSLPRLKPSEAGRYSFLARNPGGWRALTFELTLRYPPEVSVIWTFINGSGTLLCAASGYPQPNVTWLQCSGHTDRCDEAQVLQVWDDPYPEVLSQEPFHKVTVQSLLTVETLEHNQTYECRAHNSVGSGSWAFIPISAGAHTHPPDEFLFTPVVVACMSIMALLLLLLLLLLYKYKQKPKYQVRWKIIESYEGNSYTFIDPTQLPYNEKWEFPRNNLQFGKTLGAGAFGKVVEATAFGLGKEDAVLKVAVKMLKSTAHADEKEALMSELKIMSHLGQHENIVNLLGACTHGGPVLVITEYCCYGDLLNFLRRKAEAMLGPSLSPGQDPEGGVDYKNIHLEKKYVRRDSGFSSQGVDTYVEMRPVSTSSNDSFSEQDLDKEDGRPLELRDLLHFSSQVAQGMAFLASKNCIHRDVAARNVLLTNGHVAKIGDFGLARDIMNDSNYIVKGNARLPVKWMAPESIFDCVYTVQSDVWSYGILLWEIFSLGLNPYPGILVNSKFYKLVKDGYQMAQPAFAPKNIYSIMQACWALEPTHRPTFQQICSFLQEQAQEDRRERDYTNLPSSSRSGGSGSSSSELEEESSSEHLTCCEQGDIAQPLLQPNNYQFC

Compound `CC[C@H](Nc1ncnc2[nH]cnc12)c1nc2cccc(F)c2c(=O)n1-c1ccccc1` has an Activity [1] of 98.1%, an Activity [2] of 96.5% and an Activity [3] of 93.5%. The Activity [4] was 91.9% and the Activity [5] was 97.4%.
With `C[C@H](Nc1ncnc2nc[nH]c12)c1cc2cccc(Cl)c2c(=O)n1-c1ccccc1` the Activity [1] was 100%, the Activity [2] was 97.2% and the Activity [3] was 114%. For the same compound, the Activity [4] was 98.8% and the Activity [5] was 102%.
`CC(C)Oc1ccc(-c2nn([C@@H](C)c3oc4ccc(F)cc4c(=O)c3-c3cccc(F)c3)c3ncnc(N)c23)cc1F` [UMBRALISIB] was tested, and the Activity [1] was 104%, the Activity [2] was 97.9% and the Activity [3] was 121%. For the same compound, the Activity [4] was 90.9% and the Activity [5] was 104%.

Source: ChEMBL document CHEMBL5715954, “Silencing c-Myc translation as a therapeutic strategy through targeting PI3Kδ and CK1ε in hematological malignancies” (Blood, 2017)
